Experimental data from the NIST ThermoML archive (doi:10.1021/je900266h).
± gives the expanded uncertainty stated by the source.

Test: refractive index (Na D-line) (dimensionless); wn = mass fraction of the nth substance listed
Details: 101 kPa, Liquid, Standard Abbe refractometry

CCO [ethanol] + O
refractive index
Details	288.15 K	298.15 K
w1 = 0.02468	1.33491 ± 0.00041	1.33402 ± 0.00041
w1 = 0.0538	1.33686 ± 0.00041	1.33587 ± 0.00041
w1 = 0.07815	1.33854 ± 0.00041	1.33765 ± 0.00041
w1 = 0.1014	1.34032 ± 0.00041	1.33915 ± 0.00041
w1 = 0.1249	1.34209 ± 0.00041	1.34095 ± 0.00041
w1 = 0.1528	1.34443 ± 0.00041	1.34294 ± 0.00041
w1 = 0.1778	1.34627 ± 0.00041	1.34475 ± 0.00041
w1 = 0.2036	1.34829 ± 0.00041	1.34651 ± 0.00041
w1 = 0.225	1.34976 ± 0.00041	1.34781 ± 0.00041
w1 = 0.247	1.35137 ± 0.00041	1.34934 ± 0.00041
w1 = 0.2699	1.35281 ± 0.00041	1.35056 ± 0.00041
w1 = 0.2955	1.35435 ± 0.00042	1.35212 ± 0.00042
w1 = 0.3241	1.35595 ± 0.00042	1.35363 ± 0.00042
w1 = 0.3468	1.3572 ± 0.00042	1.3546 ± 0.00042
w1 = 0.3723	1.35843 ± 0.00042	1.35567 ± 0.00042
w1 = 0.3959	1.3597 ± 0.00042	1.35665 ± 0.00042
w1 = 0.4255	1.36073 ± 0.00042	1.35765 ± 0.00042
w1 = 0.4462	1.36161 ± 0.00042	1.35831 ± 0.00042
w1 = 0.4735	1.36235 ± 0.00042	1.35919 ± 0.00042
w1 = 0.4969	1.36316 ± 0.00042	1.35969 ± 0.00042
w1 = 0.5239	1.36378 ± 0.00042	1.36042 ± 0.00042
w1 = 0.5458	1.36431 ± 0.00042	1.36078 ± 0.00042
w1 = 0.5709	1.36482 ± 0.00042	1.36134 ± 0.00042
w1 = 0.5972	1.36547 ± 0.00042	1.36186 ± 0.00042
w1 = 0.6203	1.36582 ± 0.00042	1.36199 ± 0.00042
w1 = 0.6467	1.36603 ± 0.00042	1.36243 ± 0.00042
w1 = 0.6694	1.36636 ± 0.00042	1.36263 ± 0.00042
w1 = 0.6959	1.36665 ± 0.00042	1.36288 ± 0.00042
w1 = 0.7187	1.36663 ± 0.00042	1.36306 ± 0.00042
w1 = 0.7494	1.36702 ± 0.00042	1.36313 ± 0.00042
w1 = 0.7672	1.36703 ± 0.00042	1.36317 ± 0.00042
w1 = 0.7993	1.36694 ± 0.00042	1.36318 ± 0.00042
w1 = 0.8187	1.36705 ± 0.00042	1.3632 ± 0.00042
w1 = 0.8451	1.36683 ± 0.00042	1.36289 ± 0.00042
w1 = 0.867	1.36684 ± 0.00042	1.36278 ± 0.00042
w1 = 0.9028	1.36637 ± 0.00042	1.3623 ± 0.00042
w1 = 0.9235	1.36603 ± 0.00042	1.36196 ± 0.00042
w1 = 0.9481	1.36528 ± 0.00042	1.36123 ± 0.00042
w1 = 0.9752	1.36454 ± 0.00042	1.36037 ± 0.00042
w1 = 1	1.36344 ± 0.00042	1.35922 ± 0.00042
